We go through five compounds from ChEMBL document CHEMBL1201862, “PubChem BioAssay data set” (2004).

SMILES strings stand for the structures. Activity calls are given as the source filed them. Bounds are passed on as bounds.

Experiment [1] is described as follows: HEp-2 cell cytotoxicity, dose response, cytotoxicity control for RSV inhibitor project, HTS (AID 2410). Format: functional. Conditions: human respiratory syncytial virus.
Experiment [2] concerns the target T1, Tyrosine-protein phosphatase non-receptor type 7 (Homo sapiens, UniProt P35236).
T1 sequence (P35236 whole entry): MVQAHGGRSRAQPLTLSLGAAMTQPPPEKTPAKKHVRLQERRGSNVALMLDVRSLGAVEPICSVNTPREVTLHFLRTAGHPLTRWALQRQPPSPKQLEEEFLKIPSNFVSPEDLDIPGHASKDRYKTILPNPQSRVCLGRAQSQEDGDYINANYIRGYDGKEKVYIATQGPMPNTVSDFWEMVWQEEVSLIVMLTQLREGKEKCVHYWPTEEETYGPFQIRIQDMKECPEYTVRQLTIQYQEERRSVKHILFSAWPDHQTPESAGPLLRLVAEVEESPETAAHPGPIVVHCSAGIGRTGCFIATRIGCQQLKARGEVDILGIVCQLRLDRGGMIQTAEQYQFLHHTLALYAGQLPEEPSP
The experiment in a line: SAR analysis of chemical inhibitors of HePTP using a Fluorescent assay - Set 2. [Related pubchem assays (depositor defined):AID1059, AID1077, AID1661, AID2085, AID521]. Format: functional.

Experiment [3] has as its system BJ. Description: cytotoxicity toward BJ-TERT fibroblasts, dose response, cell-based, RAS-independent, luminescence (AID 1933). Type of experiment: functional. The settings on record: Homo sapiens.
Experiment [4] deals with BJ. The experiment in a line: cells. Format: functional, cell-based. The settings on record: Homo sapiens.
Experiment [5] has as its target T2, Protein skinhead-1 (Caenorhabditis elegans, UniProt P34707).
T2 sequence (P34707 whole entry): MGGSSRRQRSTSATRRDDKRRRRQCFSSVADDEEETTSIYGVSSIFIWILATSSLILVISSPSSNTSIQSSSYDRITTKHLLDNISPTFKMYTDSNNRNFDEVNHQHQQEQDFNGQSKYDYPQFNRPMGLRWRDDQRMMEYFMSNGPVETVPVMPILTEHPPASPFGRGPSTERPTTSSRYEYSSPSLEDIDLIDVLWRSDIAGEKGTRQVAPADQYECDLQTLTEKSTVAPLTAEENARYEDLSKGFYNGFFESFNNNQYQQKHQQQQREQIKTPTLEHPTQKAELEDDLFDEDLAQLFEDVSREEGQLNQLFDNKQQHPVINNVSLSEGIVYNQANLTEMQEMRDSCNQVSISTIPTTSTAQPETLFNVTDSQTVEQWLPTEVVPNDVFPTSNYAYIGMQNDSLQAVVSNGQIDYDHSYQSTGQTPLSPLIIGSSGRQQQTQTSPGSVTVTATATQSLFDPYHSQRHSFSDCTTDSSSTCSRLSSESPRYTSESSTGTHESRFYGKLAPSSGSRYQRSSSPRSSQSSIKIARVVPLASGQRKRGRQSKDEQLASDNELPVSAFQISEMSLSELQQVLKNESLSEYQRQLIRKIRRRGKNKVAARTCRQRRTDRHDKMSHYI
Type of experiment: functional.

The target of experiment [6] is Cytochrome P450 3A4 (Homo sapiens, UniProt P08684).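 Further: CYP3A4 tested as one member of a cytochrome P450 panel screen.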
Sequence of Cytochrome P450 3A4 (P08684 whole entry): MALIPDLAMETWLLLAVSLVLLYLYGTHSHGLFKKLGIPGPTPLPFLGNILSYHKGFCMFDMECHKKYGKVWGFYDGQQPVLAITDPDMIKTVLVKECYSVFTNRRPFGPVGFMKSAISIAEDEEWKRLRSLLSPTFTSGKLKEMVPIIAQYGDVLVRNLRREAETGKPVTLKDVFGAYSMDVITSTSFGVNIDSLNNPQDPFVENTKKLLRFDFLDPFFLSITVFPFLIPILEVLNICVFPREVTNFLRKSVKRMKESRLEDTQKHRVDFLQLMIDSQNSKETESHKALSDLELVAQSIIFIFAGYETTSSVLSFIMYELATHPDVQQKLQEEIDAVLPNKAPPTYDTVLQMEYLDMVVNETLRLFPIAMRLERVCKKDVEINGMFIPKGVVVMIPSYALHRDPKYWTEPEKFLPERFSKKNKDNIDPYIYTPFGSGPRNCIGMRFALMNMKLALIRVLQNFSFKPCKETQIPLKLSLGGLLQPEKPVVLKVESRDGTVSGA
Experiment [7] deals with Induced myeloid leukemia cell differentiation protein Mcl-1 (Homo sapiens, UniProt Q07820). Format: functional.
Sequence of Induced myeloid leukemia cell differentiation protein Mcl-1 (Q07820 whole entry): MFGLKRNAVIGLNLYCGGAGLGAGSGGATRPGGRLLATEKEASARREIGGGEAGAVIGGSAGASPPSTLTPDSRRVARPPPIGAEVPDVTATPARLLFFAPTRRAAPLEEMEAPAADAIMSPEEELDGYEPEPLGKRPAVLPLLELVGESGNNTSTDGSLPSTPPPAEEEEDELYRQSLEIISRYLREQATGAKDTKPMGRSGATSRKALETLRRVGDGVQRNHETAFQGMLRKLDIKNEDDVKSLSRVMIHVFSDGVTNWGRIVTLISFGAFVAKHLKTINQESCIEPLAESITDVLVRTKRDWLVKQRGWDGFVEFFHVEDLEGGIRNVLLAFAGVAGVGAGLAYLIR
In experiment [8] the target is Intestinal-type alkaline phosphatase (Homo sapiens, UniProt P09923). Description: activation of human intestinal alkaline phosphatase – biochemical, dose response (AID 488873). Format: functional.
Sequence of Intestinal-type alkaline phosphatase (P09923 whole entry): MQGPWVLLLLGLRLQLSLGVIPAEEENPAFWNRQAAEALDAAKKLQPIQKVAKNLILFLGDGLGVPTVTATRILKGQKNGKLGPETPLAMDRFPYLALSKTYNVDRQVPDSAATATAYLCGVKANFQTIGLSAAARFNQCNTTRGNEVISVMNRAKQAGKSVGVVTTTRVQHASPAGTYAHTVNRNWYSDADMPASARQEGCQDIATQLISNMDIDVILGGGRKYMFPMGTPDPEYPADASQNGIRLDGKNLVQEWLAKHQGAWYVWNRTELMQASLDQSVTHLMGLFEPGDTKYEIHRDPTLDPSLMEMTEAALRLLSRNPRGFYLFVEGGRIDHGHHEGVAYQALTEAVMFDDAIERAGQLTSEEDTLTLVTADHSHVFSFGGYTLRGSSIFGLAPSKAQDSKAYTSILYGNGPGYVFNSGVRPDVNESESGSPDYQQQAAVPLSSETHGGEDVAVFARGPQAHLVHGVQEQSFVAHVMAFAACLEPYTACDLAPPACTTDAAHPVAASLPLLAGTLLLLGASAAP
Experiment [9] has as its system Vero. The experiment in a line: Vero cell cytotoxicity, cytotoxicity control for flavivirus capping enzyme inhibitors (AID 588742). Type of experiment: functional. The settings on record: Chlorocebus sabaeus.
Experiment [10] deals with T3, Hexokinase-1 (Homo sapiens, UniProt P19367).
T3 sequence (P19367 whole entry): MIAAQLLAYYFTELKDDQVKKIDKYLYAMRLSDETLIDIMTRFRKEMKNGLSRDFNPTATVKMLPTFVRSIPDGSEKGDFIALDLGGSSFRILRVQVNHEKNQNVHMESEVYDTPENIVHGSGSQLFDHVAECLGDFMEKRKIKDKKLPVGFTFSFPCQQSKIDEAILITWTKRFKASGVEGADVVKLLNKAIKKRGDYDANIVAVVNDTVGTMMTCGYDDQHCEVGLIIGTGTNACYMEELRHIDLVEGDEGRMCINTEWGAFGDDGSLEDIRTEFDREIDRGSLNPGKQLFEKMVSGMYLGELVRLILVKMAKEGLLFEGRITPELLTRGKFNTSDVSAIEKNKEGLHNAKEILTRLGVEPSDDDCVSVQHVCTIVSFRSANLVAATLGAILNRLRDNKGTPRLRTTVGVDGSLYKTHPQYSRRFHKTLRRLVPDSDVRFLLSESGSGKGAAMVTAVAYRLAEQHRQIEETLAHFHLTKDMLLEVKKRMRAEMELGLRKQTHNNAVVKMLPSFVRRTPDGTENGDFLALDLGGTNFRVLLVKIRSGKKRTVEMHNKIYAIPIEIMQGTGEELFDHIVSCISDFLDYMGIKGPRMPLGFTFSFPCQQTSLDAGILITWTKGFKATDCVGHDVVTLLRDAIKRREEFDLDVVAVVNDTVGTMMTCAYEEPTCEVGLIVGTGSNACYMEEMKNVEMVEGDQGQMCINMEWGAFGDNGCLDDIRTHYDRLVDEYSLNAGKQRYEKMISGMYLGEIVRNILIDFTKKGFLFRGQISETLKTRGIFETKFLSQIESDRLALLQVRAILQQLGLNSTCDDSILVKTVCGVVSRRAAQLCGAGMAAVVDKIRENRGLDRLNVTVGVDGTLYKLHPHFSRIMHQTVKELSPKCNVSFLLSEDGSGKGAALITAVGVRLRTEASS
The experiment in a line: SAR analysis of small molecule inhibitors of hexokinase domain containing I (HKDC1) in the hexokinase 1 selectivity assay. [Related pubchem assays (depositor defined):AID493160, AID493190]. Format: functional.

Experiment [11] in a line: Luminescence-based dose response cell-based high throughput screening assay for cytotoxic compounds using the IEC-6 intestinal epithelial cell line. [Related pubchem assays: 1858 (Summary AID.), 1825 (Counterscreen.), 1907 (Confirmation screen.)]. Type of experiment: functional.
For experiment [12], the target named is Heat shock protein HSP 90-alpha (Homo sapiens, UniProt P07900). Description: Luminescence-based dose response biochemical high throughput screening assay for inhibitors of the Heat Shock Protein 90 (HSP90). [Related pubchem assays: 1831 (Summary AID.), 1846 (Confirmation screen.), 1789 (Primary screen.)].
For experiment [13], the target named is Sphingosine 1-phosphate receptor 1 (Homo sapiens, UniProt P21453). Format: functional.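 Further: Tango beta-arrestin reporter U2OS cells stimulated with S1P near its EC80; inhibitor potency meaning antagonism of receptor activation by the natural agonist.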
Sequence of Sphingosine 1-phosphate receptor 1 (P21453 whole entry): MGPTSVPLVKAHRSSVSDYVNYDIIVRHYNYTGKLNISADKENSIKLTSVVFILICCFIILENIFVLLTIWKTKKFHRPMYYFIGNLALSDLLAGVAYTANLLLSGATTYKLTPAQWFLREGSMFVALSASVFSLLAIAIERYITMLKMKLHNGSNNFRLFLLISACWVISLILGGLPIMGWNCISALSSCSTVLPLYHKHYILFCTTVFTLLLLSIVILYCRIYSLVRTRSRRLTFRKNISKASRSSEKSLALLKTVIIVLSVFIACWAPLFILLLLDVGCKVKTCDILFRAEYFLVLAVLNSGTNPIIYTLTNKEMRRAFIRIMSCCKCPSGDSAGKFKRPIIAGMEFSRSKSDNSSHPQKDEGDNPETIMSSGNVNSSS
Experiment [14] addresses Beta-galactosidase (Escherichia coli, UniProt Q8VNN2). The experiment in a line: beta-galactosidase enzyme inhibitors and activators, dose response, artefact control for CCR6 antagonist project, biochemical, E. coli enzyme, set 3 (AID 504712). Format: functional.
For experiment [15], the target named is Nonstructural protein 1 (Influenza A virus, UniProt Q194T2). Type of experiment: functional, Influenza A virus (A/California/07/2009(H1N1)).
Sequence of Nonstructural protein 1 (Q194T2 whole entry): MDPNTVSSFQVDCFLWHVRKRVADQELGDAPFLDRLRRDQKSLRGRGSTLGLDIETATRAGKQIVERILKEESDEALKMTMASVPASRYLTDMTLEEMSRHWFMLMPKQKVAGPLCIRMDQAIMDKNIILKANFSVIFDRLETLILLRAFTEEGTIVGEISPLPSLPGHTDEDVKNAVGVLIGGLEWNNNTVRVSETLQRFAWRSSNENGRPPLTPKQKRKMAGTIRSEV

Sequence of Beta-galactosidase (Q8VNN2 whole entry): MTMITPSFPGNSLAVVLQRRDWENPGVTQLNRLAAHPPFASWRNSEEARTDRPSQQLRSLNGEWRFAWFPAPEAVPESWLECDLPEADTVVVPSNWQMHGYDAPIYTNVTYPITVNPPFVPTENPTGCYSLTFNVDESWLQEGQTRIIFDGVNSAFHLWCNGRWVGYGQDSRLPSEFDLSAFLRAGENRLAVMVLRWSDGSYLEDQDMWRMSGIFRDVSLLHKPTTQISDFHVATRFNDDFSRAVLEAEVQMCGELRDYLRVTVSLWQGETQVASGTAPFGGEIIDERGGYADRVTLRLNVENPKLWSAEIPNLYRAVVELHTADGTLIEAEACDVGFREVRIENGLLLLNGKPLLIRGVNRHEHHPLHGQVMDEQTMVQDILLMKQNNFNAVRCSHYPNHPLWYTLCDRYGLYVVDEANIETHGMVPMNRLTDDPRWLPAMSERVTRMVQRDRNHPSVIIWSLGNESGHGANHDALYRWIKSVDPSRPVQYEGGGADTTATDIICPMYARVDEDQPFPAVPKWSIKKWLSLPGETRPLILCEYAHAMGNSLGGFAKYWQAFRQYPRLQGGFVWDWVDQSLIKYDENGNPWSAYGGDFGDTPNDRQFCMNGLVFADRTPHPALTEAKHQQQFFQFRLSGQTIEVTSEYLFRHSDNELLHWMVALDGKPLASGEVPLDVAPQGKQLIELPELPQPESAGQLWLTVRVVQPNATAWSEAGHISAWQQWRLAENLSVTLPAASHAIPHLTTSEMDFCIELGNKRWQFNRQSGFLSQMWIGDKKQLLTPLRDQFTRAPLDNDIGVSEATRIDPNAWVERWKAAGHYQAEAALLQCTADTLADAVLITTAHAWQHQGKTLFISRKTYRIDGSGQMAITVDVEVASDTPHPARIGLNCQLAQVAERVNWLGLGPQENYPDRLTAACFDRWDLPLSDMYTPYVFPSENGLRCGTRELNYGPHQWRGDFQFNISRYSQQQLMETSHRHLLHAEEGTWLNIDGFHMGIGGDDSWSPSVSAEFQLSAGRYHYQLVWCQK

In general, CC50 refers to the concentration that lowers cell viability or growth by half. As usually defined, the IC50 is the concentration needed to halve the response being measured. `CCc1nnc(NS(=O)(=O)c2ccc(NC(=S)NC(=O)/C=C/c3ccc(C(C)C)cc3)cc2)s1`: the cytotoxic concentration (CC50) in experiment [1] is 17.2 µM (active). Besides, the IC50 in [2] was 5.99 µM (active).

As usually defined, the EC50 is the concentration needed to bring the measured effect to its halfway point. What is called AC50 is the midpoint of the concentration-response curve, whichever way the signal moves. As for `O=C(/C=C/c1ccco1)Nc1ccc(Oc2ccccc2)cc1`, the EC50 in experiment [3] was > 150 µM (not active); in experiment [4] it was 21.2 µM (active). Besides, the IC50 in [5] is > 100 µM (inactive). For the same compound, in [6], the AC50 is 39.8 µM (inconclusive).

As to `CC1CC(=O)c2c(cc3c(-c4c(O)cc(O)c5c(O)c6c(cc45)OC(C)CC6=O)c(O)cc(O)c3c2O)O1` (stereo not given) [CEPHALOCHROMIN], the IC50 in experiment [7] was 1.49 µM (active). In experiment [8], the concentration for a half-maximal effect (EC50) is 21.7 µM (active).

As to `COc1ccc(S(=O)(=O)Nc2cc(SCC(=O)O)c(O)c3ccccc23)cc1`, the CC50 in [9] is 20.6 µM (active). In addition, the IC50 in experiment [10] was > 80 µM (inactive).

Consider `O=C1C(Nc2ccc(O)cc2)=C/C(=N/S(=O)(=O)c2cccs2)c2ccccc21`, for which the IC50 in [11] is 428 nM (active); in experiment [12], 656 nM (active); in [13] it was 4.23 µM (active); in [14] it was > 66.6 µM (inactive); in experiment [15] it was 17.9 µM (active).
